Results on one compound are retold here after article PMC4503431, “Impaired Itching Perception in Murine Models of Cholestasis Is Supported by Dysregulation of GPBAR1 Signaling” (PLoS ONE, 2015).

The target in experiment [1] is T1, farnesoid X receptor (FXR) (Homo sapiens, UniProt Q96RI1).
T1 construct: gene NR1H4; pSG5-FXR; with RXR (pSG5-RXR cotransfected)
T1 sequence (Q96RI1 1-486): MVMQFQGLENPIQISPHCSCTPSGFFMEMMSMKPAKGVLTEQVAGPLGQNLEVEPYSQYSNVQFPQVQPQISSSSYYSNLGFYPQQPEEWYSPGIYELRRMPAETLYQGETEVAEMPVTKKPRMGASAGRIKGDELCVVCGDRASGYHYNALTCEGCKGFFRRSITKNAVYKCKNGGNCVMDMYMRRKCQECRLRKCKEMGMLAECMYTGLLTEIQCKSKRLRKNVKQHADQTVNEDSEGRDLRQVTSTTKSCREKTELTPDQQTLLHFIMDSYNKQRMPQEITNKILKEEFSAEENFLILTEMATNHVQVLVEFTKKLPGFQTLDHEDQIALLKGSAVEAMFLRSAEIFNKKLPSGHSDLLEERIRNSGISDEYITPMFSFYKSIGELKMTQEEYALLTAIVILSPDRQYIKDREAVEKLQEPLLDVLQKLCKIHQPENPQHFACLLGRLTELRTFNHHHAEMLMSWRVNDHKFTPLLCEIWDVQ
T1 sequence (P19793 1-462 partner): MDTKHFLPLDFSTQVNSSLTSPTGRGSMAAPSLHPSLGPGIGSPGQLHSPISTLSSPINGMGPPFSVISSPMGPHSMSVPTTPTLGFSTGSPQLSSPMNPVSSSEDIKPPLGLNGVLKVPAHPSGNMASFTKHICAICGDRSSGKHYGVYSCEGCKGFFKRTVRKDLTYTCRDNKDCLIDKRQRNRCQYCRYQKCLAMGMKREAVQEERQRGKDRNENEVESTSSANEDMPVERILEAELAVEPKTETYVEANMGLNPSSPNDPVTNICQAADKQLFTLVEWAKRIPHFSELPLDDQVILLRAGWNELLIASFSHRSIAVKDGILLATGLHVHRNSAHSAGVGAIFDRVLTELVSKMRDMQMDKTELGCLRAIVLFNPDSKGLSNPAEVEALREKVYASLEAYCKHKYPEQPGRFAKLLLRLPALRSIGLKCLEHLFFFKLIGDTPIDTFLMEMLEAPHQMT
Put plainly: FXRE (hsp27 IR1) luciferase transactivation in HepG2 cells transfected with FXR and RXR. Format: cell-based.

The next experiment addresses T2, GPBAR1 (TGR5) (Homo sapiens, UniProt Q8TDU6).
T2 construct: pCMVSPORT6-human GPBAR1
T2 sequence (Q8TDU6 1-330): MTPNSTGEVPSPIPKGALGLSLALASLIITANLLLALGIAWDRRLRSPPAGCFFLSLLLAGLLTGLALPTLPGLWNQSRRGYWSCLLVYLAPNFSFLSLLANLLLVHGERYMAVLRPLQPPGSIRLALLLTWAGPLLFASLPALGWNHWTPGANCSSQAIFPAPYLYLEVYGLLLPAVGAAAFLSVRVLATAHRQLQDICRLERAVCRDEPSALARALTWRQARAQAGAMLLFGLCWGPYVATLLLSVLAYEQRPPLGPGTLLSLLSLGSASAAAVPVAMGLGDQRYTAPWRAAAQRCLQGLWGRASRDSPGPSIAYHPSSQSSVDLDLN
As to the kind of experiment: CRE-luciferase transactivation in HEK293T cells transfected with human GPBAR1. Format: cell-based.

As a reminder, the EC50 is the concentration giving half of the maximal effect. A lower EC50 goes with an effect from little substance. `CC[C@H]1[C@@H](O)[C@@H]2[C@H](CC[C@]3(C)[C@@H]([C@H](C)CCO)CC[C@@H]23)[C@@]2(C)CC[C@@H](O)C[C@@H]12` [BAR502, 6α-ethyl-3α, 7α-dihydroxy-24-nor-5β-cholan-23-ol]: the results for the EC50 (in experiment [1]; on GPBAR1 (TGR5)) were 2000 ± 200 nM and 400 ± 100 nM, respectively.
